Measurements as given in ChEMBL document CHEMBL1144685, “Naphthamides as novel and potent vascular endothelial growth factor receptor tyrosine kinase inhibitors: design, synthesis, and evaluation” (J Med Chem, 2008).
pIC50: −log10 of the molar value.

Assays:
[1] = Volume of distribution at steady state in Sprague-Dawley rat at 2 mg/kg, iv; type: ADME, organism-based; parameters: dose 2 mg/kg, route intravenous; conditions: in vivo, read-out: Vdss
[2] = tested on: Plasma; assay: Plasma concentration in BALB/c mouse at 3 mg/kg, po; type: ADME, organism-based; parameters: dose 3 mg/kg, route oral; conditions: in vivo
[3] = Cmax in human HT29 cell xenografted CD1 nu/nu mouse at 30 mg/kg, po; type: ADME, organism-based, HT-29; parameters: dose 30 mg/kg, route oral; conditions: in vivo
[4] = molecular target: Serine/threonine-protein kinase B-raf (Homo sapiens, UniProt P15056, V600E); assay: Inhibition of b-Raf V600E
[5] = Inhibition of histone H3 phosphorylation in human HeLa cells; type: cell-based
[6] = tested on: Plasma; assay: Plasma concentration in BALB/c mouse at 30 mg/kg, po; type: ADME, organism-based; parameters: dose 30 mg/kg, route oral; conditions: in vivo
[7] = Protein binding in mouse plasma; type: ADME, cell-free; conditions: read-out: PPB (converted)
[8] = molecular target: Aurora kinase B (Homo sapiens, UniProt Q96GD4); assay: Inhibition of Aurora B
[9] = tested on: NIH3T3; assay: Inhibition of CSF1-induced proliferation of BALB/c mouse 3T3 cells; type: functional, cell-based
[10] = molecular target: Vascular endothelial growth factor receptor 3 (Homo sapiens, UniProt P35916)
[11] = Mean retention time in Sprague-Dawley rat at 2 mg/kg, iv; type: ADME, organism-based; parameters: dose 2 mg/kg, route intravenous; conditions: in vivo
[12] = Oral bioavailability in Sprague-Dawley rat at 5 mg/kg; type: ADME, organism-based; conditions: in vivo
[13] = Inhibition of anti-CD3-induced proliferation of human T cells; type: functional, cell-based; conditions: T-cell
[14] = tested on: HUVEC; assay: Inhibition of FGF-induced proliferation of HUVEC cells; type: functional, cell-based; conditions: Homo sapiens
[15] = molecular target: Cytochrome P450 3A4 (Homo sapiens, UniProt P08684)
[16] = molecular target: Fibroblast growth factor receptor 2 (Homo sapiens, UniProt P21802); assay: Inhibition of FGFR2
[17] = tested on: NHDF; assay: Inhibition of PDGF-induced proliferation of NHDF cells; type: functional, cell-based; conditions: Homo sapiens
[18] = Inhibition of Erk phosphorylation in human A375 cells; type: cell-based; conditions: A-375
[19] = Intrinsic clearance in human liver microsomes; type: ADME, Microsome
[20] = molecular target: Vascular endothelial growth factor receptor 1 (Homo sapiens, UniProt P17948)
[21] = tested on: Plasma; assay: Plasma concentration in BALB/c mouse at 10 mg/kg, po; type: ADME, organism-based; parameters: dose 10 mg/kg, route oral; conditions: in vivo
[22] = tested on: Rattus norvegicus; assay: Inhibition of VEGF-induced angiogenesis in VEGF soaked disk implanted Sprague-Dawley rat cornea assessed as number of blood vessels intersecting the midpoint between the disk and limbus after 7 days; type: functional; conditions: 168 h
[23] = molecular target: Tyrosine-protein kinase Lck (Homo sapiens, UniProt P06239)
[24] = tested on: Plasma; assay: Plasma concentration in CD1 nu/nu mouse at 100 mg/kg, po; type: ADME, organism-based; parameters: dose 100 mg/kg, route oral; conditions: in vivo
[25] = Protein binding in dog plasma; type: ADME, cell-free, Canis lupus familiaris; conditions: read-out: PPB (converted)
[26] = AUC (0 to 24 hrs) in Sprague-Dawley rat at 5 mg/kg, po; type: ADME, organism-based; parameters: time < 24 hr, dose 5 mg/kg, route oral; conditions: plasma
[27] = AUC (0 to 24 hrs) in human HT29 cell xenografted CD1 nu/nu mouse at 30 mg/kg, po; type: ADME, organism-based, HT-29; parameters: time < 24 hr, dose 30 mg/kg, route oral; conditions: in vivo
[28] = Clearance in Sprague-Dawley rat at 2 mg/kg, iv; type: ADME, organism-based; parameters: dose 2 mg/kg, route intravenous; conditions: in vivo
[29] = AUC (0 to 24 hrs) in human HT29 cell xenografted CD1 nu/nu mouse at 3 mg/kg, po; type: ADME, organism-based, HT-29; parameters: time < 24 hr, dose 3 mg/kg, route oral; conditions: in vivo
[30] = AUC (0 to 24 hrs) in human HT29 cell xenografted CD1 nu/nu mouse at 10 mg/kg, po; type: ADME, organism-based, HT-29; parameters: time < 24 hr, dose 10 mg/kg, route oral; conditions: in vivo
[31] = tested on: Plasma; assay: Plasma concentration in CD1 nu/nu mouse at 30 mg/kg, po; type: ADME, organism-based; parameters: dose 30 mg/kg, route oral; conditions: in vivo
[32] = tested on: HUVEC; assay: cells; conditions: Homo sapiens
Description: Inhibition of bFGF-induced proliferation of HUVEC cells

[33] = molecular target: Cytochrome P450 2D6 (Homo sapiens, UniProt P10635)
[34] = tested on: Liver microsomes; assay: Metabolic stability assessed as covalent binding in human liver microsomes; type: ADME, Microsome
[35] = Cmax in human HT29 cell xenografted CD1 nu/nu mouse at 3 mg/kg, po; type: ADME, organism-based, HT-29; parameters: dose 3 mg/kg, route oral; conditions: in vivo
[36] = molecular target: Macrophage colony-stimulating factor 1 receptor (Homo sapiens, UniProt P07333); assay: Inhibition of c-FMS
[37] = Half life in Sprague-Dawley rat at 2 mg/kg, iv; type: ADME, organism-based; parameters: dose 2 mg/kg, route intravenous; conditions: in vivo
[38] = tested on: Mus musculus; assay: Antitumor activity against human HT29 cell xenografted CD1 nu/nu mouse assessed as inhibition of tumor growth at 3 mg/kg, po; type: functional; conditions: CD1, HT-29
[39] = Protein binding in rat plasma; type: ADME, cell-free; conditions: read-out: PPB (converted)
[40] = AUC in VEGF soaked disk implanted Sprague-Dawley rat; type: ADME, organism-based; conditions: plasma
[41] = Cmax in Sprague-Dawley rat at 5 mg/kg, po; type: ADME, organism-based; parameters: dose 5 mg/kg, route oral; conditions: in vivo
[42] = Intrinsic clearance in rat liver microsomes; type: ADME, Microsome
[43] = Cmax in VEGF soaked disk implanted Sprague-Dawley rat; type: ADME, organism-based; conditions: in vivo
[44] = Cmax in human HT29 cell xenografted CD1 nu/nu mouse at 10 mg/kg, po; type: ADME, organism-based, HT-29; parameters: dose 10 mg/kg, route oral; conditions: in vivo
[45] = Mean retention time in cynomolgus monkey at 1 mg/kg, iv; type: ADME, organism-based, Macaca fascicularis; parameters: dose 1 mg/kg, route intravenous; conditions: in vivo
[46] = Volume of distribution at steady state in cynomolgus monkey at 1 mg/kg, iv; type: ADME, organism-based, Macaca fascicularis; parameters: dose 1 mg/kg, route intravenous; conditions: in vivo, read-out: Vdss
[47] = Half life in mouse at 3 mg/kg, iv; type: ADME, organism-based; parameters: dose 3 mg/kg, route intravenous; conditions: in vivo
[48] = Mean retention time in mouse at 3 mg/kg, iv; type: ADME, organism-based; parameters: dose 3 mg/kg, route intravenous; conditions: in vivo
[49] = Clearance in mouse at 3 mg/kg, iv; type: ADME, organism-based; parameters: dose 3 mg/kg, route intravenous; conditions: in vivo
[50] = Oral bioavailability in dog at 10 mg/kg; type: ADME, organism-based, Canis lupus familiaris; conditions: in vivo
[51] = Half life in dog at 1 mg/kg, iv; type: ADME, organism-based, Canis lupus familiaris; parameters: dose 1 mg/kg, route intravenous; conditions: in vivo
[52] = Oral bioavailability in cynomolgus monkey at 10 mg/kg, po; type: ADME, organism-based, Macaca fascicularis; conditions: in vivo
[53] = Volume of distribution at steady state in dog at 1 mg/kg, iv; type: ADME, organism-based, Canis lupus familiaris; parameters: dose 1 mg/kg, route intravenous; conditions: in vivo, read-out: Vdss
[54] = Clearance in dog at 1 mg/kg, iv; type: ADME, organism-based, Canis lupus familiaris; parameters: dose 1 mg/kg, route intravenous; conditions: in vivo
[55] = Volume of distribution at steady state in mouse at 3 mg/kg, iv; type: ADME, organism-based; parameters: dose 3 mg/kg, route intravenous; conditions: in vivo, read-out: Vdss
[56] = Half life in cynomolgus monkey at 1 mg/kg, iv; type: ADME, organism-based, Macaca fascicularis; parameters: dose 1 mg/kg, route intravenous; conditions: in vivo
[57] = Clearance in cynomolgus monkey at 1 mg/kg, iv; type: ADME, organism-based, Macaca fascicularis; parameters: dose 1 mg/kg, route intravenous; conditions: in vivo
[58] = Mean retention time in dog at 1 mg/kg, iv; type: ADME, organism-based, Canis lupus familiaris; parameters: dose 1 mg/kg, route intravenous; conditions: in vivo
[59] = Oral bioavailability in mouse at 10 mg/kg, po; type: ADME, organism-based; conditions: in vivo

Serine/threonine-protein kinase B-raf, sequence (P15056 2-766 V600E limits assumed): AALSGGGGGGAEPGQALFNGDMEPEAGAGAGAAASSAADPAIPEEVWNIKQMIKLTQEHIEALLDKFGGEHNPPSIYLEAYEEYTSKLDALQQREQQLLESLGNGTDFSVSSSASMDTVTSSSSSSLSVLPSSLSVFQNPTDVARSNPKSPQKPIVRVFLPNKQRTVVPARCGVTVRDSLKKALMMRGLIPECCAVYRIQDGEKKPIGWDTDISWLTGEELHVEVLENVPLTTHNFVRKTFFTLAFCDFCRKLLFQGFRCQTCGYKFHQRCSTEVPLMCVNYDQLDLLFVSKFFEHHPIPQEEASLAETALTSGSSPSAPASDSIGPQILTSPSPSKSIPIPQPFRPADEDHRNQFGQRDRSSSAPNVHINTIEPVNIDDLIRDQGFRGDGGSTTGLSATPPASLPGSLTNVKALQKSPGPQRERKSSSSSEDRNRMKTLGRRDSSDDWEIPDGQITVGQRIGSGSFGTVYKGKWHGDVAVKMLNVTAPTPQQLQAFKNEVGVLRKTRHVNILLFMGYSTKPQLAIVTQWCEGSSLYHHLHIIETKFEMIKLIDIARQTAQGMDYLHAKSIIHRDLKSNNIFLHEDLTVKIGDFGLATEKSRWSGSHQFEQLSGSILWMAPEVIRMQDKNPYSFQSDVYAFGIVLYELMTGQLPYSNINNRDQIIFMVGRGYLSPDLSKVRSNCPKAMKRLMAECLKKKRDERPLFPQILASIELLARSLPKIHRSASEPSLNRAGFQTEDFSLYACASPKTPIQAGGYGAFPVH
Vascular endothelial growth factor receptor 3, sequence (P35916 whole entry): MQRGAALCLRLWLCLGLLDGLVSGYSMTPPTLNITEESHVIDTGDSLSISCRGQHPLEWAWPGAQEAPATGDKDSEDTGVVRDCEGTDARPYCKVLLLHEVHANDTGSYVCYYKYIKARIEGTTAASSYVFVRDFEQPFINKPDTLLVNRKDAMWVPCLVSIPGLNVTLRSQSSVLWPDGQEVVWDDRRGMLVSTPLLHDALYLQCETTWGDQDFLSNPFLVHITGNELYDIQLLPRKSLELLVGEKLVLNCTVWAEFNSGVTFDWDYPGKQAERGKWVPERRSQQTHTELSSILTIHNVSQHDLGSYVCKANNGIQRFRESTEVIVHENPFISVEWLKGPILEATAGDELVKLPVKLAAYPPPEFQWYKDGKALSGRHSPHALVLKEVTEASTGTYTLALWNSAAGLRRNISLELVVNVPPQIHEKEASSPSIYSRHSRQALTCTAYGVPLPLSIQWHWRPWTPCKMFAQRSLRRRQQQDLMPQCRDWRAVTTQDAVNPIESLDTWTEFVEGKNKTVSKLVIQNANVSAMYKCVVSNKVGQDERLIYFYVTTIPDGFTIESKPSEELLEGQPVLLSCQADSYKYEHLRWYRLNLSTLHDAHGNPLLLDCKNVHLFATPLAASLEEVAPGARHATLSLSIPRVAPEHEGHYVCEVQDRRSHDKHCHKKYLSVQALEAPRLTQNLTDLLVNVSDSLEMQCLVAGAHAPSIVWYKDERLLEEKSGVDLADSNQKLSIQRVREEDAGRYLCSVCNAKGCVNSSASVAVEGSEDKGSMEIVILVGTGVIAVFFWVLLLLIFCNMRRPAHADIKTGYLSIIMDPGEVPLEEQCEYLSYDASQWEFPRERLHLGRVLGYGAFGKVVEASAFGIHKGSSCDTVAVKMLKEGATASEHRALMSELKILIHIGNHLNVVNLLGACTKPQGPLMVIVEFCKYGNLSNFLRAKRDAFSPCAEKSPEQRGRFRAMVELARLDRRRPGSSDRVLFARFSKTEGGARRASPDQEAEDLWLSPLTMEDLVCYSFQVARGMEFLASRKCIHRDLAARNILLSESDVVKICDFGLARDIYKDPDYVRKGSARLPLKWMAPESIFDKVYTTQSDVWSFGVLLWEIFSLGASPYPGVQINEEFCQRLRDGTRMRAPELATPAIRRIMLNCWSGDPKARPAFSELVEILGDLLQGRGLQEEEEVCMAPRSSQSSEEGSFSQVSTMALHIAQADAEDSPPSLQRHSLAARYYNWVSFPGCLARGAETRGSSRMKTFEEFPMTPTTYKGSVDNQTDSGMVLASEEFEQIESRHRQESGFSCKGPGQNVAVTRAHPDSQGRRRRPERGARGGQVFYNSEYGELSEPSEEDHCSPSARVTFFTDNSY
Cytochrome P450 2D6, sequence (P10635 whole entry): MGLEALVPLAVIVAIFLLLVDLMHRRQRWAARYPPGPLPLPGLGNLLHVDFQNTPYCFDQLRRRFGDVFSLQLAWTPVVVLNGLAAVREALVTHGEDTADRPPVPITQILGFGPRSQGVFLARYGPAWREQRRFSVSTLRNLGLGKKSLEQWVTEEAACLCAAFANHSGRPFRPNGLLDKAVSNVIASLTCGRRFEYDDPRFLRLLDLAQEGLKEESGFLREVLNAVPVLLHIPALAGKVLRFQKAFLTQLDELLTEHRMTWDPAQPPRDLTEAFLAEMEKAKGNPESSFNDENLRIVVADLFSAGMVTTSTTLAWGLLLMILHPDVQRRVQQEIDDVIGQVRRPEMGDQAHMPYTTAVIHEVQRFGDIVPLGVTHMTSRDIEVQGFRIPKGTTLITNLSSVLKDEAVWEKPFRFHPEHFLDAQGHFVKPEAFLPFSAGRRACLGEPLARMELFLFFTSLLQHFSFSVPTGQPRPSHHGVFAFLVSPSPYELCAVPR
Vascular endothelial growth factor receptor 1, sequence (P17948 whole entry): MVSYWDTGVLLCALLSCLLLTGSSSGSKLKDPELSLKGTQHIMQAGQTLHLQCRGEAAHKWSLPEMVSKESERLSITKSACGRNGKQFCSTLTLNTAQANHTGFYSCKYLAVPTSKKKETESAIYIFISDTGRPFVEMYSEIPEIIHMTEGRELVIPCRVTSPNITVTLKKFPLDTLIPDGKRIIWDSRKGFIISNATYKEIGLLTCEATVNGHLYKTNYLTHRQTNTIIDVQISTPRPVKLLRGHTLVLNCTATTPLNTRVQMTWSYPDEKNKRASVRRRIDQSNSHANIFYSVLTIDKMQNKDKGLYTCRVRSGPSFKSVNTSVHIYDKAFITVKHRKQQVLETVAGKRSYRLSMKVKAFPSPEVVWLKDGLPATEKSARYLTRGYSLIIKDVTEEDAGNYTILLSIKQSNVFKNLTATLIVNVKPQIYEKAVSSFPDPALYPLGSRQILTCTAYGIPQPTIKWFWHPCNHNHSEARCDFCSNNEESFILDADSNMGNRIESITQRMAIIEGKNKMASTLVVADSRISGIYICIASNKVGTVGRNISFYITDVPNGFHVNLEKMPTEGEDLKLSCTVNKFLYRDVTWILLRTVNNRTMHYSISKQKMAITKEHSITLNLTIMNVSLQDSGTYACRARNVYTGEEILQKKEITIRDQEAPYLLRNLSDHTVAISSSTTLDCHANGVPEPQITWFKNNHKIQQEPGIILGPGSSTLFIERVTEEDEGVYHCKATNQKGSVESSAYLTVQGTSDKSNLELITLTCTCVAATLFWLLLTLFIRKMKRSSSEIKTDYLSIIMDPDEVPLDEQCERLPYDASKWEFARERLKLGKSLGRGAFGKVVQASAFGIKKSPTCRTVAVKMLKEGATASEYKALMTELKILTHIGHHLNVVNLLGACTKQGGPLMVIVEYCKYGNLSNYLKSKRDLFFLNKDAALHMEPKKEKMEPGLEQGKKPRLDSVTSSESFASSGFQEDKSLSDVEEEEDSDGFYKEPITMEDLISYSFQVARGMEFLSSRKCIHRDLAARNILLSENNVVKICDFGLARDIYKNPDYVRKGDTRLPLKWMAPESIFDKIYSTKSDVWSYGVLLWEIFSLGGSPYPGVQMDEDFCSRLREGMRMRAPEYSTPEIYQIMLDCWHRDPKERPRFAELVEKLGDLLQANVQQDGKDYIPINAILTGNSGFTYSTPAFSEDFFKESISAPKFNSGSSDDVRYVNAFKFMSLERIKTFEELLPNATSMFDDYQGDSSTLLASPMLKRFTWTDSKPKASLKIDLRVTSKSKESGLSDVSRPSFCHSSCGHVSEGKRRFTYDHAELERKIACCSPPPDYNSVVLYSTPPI
Tyrosine-protein kinase Lck, sequence (P06239 whole entry): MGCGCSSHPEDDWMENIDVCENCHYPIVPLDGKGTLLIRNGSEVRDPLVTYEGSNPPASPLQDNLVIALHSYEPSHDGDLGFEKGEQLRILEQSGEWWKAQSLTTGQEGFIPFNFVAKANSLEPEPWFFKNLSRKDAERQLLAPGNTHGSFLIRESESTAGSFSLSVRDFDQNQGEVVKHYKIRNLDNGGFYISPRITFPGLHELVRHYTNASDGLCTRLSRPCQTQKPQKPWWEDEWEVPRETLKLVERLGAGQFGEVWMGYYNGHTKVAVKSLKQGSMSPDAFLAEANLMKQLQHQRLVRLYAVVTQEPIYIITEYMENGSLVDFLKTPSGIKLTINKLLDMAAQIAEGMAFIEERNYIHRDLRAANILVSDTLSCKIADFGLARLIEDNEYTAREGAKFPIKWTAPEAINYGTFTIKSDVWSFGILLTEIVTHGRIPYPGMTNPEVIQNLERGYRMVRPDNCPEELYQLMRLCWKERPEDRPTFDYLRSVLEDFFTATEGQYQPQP
Aurora kinase B, sequence (Q96GD4 whole entry): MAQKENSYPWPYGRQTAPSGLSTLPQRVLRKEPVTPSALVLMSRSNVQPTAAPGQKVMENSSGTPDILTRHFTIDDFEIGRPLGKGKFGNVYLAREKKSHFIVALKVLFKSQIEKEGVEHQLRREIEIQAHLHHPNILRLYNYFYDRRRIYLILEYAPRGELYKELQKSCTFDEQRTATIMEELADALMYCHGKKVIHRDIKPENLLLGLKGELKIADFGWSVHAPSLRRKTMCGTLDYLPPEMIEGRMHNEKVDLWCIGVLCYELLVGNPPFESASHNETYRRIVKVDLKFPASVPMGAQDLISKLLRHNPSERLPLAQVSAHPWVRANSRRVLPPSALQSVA

## COc1cc2nccc(Oc3ccc4c(C(=O)Nc5ccc(Cl)cc5)cccc4c3)c2cc1OC
[1]
  Vd: 7.3 L/kg
[2]
  concentration: 160 nM
[3]
  Cmax: 3900 nM
[4]
  pIC50: 7.40
[5]
  pIC50: 5.96
[6]
  concentration: 1500 nM
[7]
  fraction unbound: 0.014
[8]
  pIC50: < 6.00
[9]
  pIC50: 7.60
[10]
  pIC50: 8.70
[11]
  MRT: 31 h
[12]
  bioavailability: 21%
[13]
  pIC50: < 4.70
[14]
  pIC50: < 5.94
[15]
  pIC50: < 4.30
[16]
  pIC50: < 4.70
[17]
  pIC50: 7.60
[18]
  pIC50: < 6.00
[19]
  microsomal CLint: 30 µL/min/mg
[20]
  pIC50: 9.30
[21]
  concentration: 490 nM
[22]
  ED50: 0.1 mg/kg
[23]
  pIC50: 7.42
[24]
  concentration: 10300 nM
[25]
  fraction unbound: 0.026
[26]
  AUC(0-t) at 24 h: 5250 ng·h/mL
[27]
  AUC(0-t) at 24 h: 48.4 µM·h
[28]
  clearance: 3.33 mL/min/kg
[29]
  AUC(0-t) at 24 h: 6.2 µM·h
[30]
  AUC(0-t) at 24 h: 24.1 µM·h
[31]
  concentration: 4000 nM
[32]
  pIC50: < 5.96
[33]
  pIC50: < 4.30
[34]
  Stability: < 100 pM/mg/h
[35]
  Cmax: 500 nM
[36]
  pIC50: 7.70
[37]
  half-life: 24 h
[38]
  inhibition in vivo at 3 mg/kg: 74%
[39]
  fraction unbound: 0.02
[40]
  AUC: 1.3 µM·h
[41]
  Cmax: 420 ng/mL
[42]
  microsomal CLint: 50 µL/min/mg
[43]
  Cmax: 200 nM
[44]
  Cmax: 2200 nM

## COc1cc2nccc(Oc3ccc4c(C(=O)Nc5ccc(Cl)cc5)cccc4c3)c2cc1OC.CS(=O)(=O)O
[45]
  MRT: 22 h
[46]
  Vd: 4.3 L/kg
[47]
  half-life: 17 h
[48]
  MRT: 23 h
[49]
  clearance: 3.33 mL/min/kg
[50]
  bioavailability: 72%
[51]
  half-life: 48 h
[52]
  bioavailability: 62%
[53]
  Vd: 6.7 L/kg
[54]
  clearance: 1.67 mL/min/kg
[55]
  Vd: 4.8 L/kg
[56]
  half-life: 56 h
[57]
  clearance: 3.33 mL/min/kg
[58]
  MRT: 66 h
[59]
  bioavailability: 24%
